Test results taken from US20250236608A1, “EGFR INHIBITORS” (Blueprint Medicines Corporation, priority 2022, published 2025).

What was measured:
[1] = biological target: pEGFR (Tyr1068) in PC-9 cells (Ex19Del) (Homo sapiens (Human), UniProt P00533, DEL746-750); test: PC-9 pEGFR AlphaLISA assay; type: cell-based; conditions: 4 hours incubation, p-EGFR (Tyr1068) AlphaLISA, read-out: Ext pEGFR_PC-9 Ex19Del IC50
How it was run: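 First, cells settled overnight in 10% FBS medium. Second, a 10-point, 4-fold series of test agents was applied for 4 h at 37° C. Third, lysates were probed with AlphaLISA acceptor and donor beads, incubated overnight in the dark. Last, IC50 was taken from the dose-response.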

EGFR (d746-750) = EGFR (d746-750) (Homo sapiens (Human), UniProt P00533, DEL746-750); test: Biochemical EGFR inhibition assay, EGFR (d746-750); conditions: Caliper mobility shift; 1.0 mM ATP or ATP Km; read-out: Enz EGFR_Exon19-del746-750 IC50
EGFR L858R = EGFR L858R (Homo sapiens (Human), UniProt P00533, L858R); test: Biochemical EGFR inhibition assay, EGFR L858R; conditions: Caliper mobility shift; 1.0 mM ATP or ATP Km; read-out: Enz EGFR_L858R IC50
EGFR L858R, sequence (P00533 25-1210 L858R): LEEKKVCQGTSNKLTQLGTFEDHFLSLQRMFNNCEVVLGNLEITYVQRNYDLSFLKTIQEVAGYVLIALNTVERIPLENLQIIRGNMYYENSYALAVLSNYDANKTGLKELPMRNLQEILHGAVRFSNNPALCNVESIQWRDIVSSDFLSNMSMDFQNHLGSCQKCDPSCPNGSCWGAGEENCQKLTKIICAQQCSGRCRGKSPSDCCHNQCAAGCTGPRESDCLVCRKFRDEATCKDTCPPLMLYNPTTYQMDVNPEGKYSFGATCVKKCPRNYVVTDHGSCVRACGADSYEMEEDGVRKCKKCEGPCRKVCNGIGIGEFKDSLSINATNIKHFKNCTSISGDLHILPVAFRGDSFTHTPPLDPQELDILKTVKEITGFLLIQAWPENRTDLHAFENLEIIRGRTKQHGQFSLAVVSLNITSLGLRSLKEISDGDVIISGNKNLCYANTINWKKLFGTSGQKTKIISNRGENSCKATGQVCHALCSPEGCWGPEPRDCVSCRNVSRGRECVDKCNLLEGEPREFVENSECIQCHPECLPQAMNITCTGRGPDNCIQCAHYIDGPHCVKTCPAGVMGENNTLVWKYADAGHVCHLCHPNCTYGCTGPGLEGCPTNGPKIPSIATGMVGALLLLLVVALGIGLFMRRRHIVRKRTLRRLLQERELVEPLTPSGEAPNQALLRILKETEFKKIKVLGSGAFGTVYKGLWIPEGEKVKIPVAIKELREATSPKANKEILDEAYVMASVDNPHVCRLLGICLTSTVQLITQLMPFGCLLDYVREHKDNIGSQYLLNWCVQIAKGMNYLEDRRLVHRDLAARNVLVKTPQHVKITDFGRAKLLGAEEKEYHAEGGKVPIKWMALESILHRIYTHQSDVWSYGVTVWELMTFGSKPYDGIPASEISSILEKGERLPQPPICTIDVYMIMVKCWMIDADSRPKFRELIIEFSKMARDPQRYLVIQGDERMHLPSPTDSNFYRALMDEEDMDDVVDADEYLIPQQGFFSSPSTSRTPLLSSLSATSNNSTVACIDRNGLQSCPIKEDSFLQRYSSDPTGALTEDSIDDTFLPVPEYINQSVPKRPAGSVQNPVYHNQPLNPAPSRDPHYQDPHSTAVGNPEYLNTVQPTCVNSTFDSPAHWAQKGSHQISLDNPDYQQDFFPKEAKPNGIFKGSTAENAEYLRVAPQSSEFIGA

pEGFR (Tyr1068) in PC-9 cells (Ex19Del), sequence (P00533 other isoform, or with tags, fused parts or gaps del 746-750): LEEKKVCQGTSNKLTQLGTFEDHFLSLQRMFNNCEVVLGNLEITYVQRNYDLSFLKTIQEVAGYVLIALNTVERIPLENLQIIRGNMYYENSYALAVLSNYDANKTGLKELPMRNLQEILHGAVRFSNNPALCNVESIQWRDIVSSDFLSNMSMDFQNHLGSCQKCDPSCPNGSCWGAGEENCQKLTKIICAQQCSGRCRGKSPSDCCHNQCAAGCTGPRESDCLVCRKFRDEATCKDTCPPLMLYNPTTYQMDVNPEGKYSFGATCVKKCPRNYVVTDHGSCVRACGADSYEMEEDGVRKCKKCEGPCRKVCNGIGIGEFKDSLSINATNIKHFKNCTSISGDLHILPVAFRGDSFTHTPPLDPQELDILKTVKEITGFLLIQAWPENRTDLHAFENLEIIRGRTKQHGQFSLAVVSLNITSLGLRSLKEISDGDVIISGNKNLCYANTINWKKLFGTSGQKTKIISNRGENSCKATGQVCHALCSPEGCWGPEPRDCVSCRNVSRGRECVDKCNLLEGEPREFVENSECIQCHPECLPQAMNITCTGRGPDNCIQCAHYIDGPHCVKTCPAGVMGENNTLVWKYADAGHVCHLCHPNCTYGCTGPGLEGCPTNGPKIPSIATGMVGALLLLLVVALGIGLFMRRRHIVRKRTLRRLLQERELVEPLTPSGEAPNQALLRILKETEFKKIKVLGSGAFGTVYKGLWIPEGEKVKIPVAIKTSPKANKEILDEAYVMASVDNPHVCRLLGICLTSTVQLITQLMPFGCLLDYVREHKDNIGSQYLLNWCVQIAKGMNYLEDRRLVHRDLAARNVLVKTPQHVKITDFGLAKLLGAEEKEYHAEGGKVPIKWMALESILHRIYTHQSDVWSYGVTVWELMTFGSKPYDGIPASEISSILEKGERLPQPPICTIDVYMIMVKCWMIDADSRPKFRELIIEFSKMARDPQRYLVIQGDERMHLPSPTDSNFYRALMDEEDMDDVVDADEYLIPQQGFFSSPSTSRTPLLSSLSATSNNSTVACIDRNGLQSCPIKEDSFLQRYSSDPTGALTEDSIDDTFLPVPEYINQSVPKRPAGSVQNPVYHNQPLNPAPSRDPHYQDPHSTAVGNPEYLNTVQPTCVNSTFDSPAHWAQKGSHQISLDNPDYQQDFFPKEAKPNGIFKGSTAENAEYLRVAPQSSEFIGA
EGFR (d746-750), sequence (P00533 other isoform, or with tags, fused parts or gaps del 1-694/del 746-750 limits assumed): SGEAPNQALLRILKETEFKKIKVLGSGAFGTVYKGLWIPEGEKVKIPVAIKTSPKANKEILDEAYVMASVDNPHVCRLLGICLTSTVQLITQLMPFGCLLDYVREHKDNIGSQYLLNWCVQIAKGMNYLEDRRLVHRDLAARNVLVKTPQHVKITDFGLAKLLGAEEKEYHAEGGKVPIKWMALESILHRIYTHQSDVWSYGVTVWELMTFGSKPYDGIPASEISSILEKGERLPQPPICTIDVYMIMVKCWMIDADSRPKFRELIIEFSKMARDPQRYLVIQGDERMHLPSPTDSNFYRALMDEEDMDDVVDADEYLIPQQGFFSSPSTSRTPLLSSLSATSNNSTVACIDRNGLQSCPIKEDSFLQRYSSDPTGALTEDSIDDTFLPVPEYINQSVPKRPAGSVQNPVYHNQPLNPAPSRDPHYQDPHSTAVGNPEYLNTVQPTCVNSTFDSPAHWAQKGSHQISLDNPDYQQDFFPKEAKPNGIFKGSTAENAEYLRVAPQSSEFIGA

Row | Compound | IC50 [1] | IC50 (EGFR (d746-750)) | IC50 (EGFR L858R)
1 | COc1cc2ncnc(-c3cn(C)nc3-c3ccccc3)c2cc1NC(=O)c1cccnc1C [Example 195, N-(7-methoxy-4-(1-methyl-3-phenyl-1H-pyrazol-4-yl)quinazolin-6-yl)-2-methylnicotinamide] | 5.9 nM | 1.6 nM | 3.8 nM
2 | COc1cc2ncnc(-c3cn(C)nc3-c3ccccc3)c2cc1N1CCC[C@@H](O)C1 [Example 165, (R)-1-(7-methoxy-4-(1-methyl-3-phenyl-1H-pyrazol-4-yl)quinazolin-6-yl)piperidin-3-ol] | 10.2 nM | 1.7 nM | 3.4 nM
3 | COc1cc2ncnc(-c3c[nH]nc3-c3ccccc3)c2nc1NC(=O)C1(C(F)(F)F)CC1 [Example 372, N-(7-methoxy-4-(3-phenyl-1H-pyrazol-4-yl)pyrido[3,2-d]pyrimidin-6-yl)-1-(trifluoromethyl)cyclopropane-1-carboxamide] | 1.5 nM | 0.7 nM | 1.6 nM
4 | COc1cc2ncnc(-c3c[nH]nc3-c3ccccc3)c2cc1[C@H]1CCCCO1 (single isomer, unassigned) [Example 133, (R)-7-methoxy-4-(3-phenyl-1H-pyrazol-4-yl)-6-(tetrahydro-2H-pyran-2-yl)quinazoline or (S)-7-methoxy-4-(3-phenyl-1H-pyrazol-4-yl)-6-(tetrahydro-2H-pyran-2-yl)quinazoline] | 2.4 nM | 0.5 nM | 1.1 nM
5 | COc1cc2ncnc(-c3cn(CC(F)F)nc3-c3ccccc3)c2cc1OCCCN1CCOCC1 [Example 23, 4-(3-((4-(1-(2,2-difluoroethyl)-3-phenyl-1H-pyrazol-4-yl)-7-methoxyquinazolin-6-yl)oxy)propyl)morpholine] | 0.8 nM | 0.9 nM | 1.9 nM
6 | CCn1cc(-c2ncnc3cc(OC)c([C@H](C)O)cc23)c(-c2ccccc2)n1 (single isomer, unassigned) [Example 105, (S)-1-(4-(1-ethyl-3-phenyl-1H-pyrazol-4-yl)-7-methoxyquinazolin-6-yl)ethan-1-ol or (R)-1-(4-(1-ethyl-3-phenyl-1H-pyrazol-4-yl)-7-methoxyquinazolin-6-yl)ethan-1-ol] | 6.5 nM | 1.3 nM | 3.3 nM
7 | COc1cc2ncnc(-c3cn(C)nc3-c3c(F)cccc3F)c2cc1NC(=O)[C@@]12C[C@@H]1CN(C)C2 [Example 292, (1S,5S)—N-(4-(3-(2,6-difluorophenyl)-1-methyl-1H-pyrazol-4-yl)-7-methoxyquinazolin-6-yl)-3-methyl-3-azabicyclo[3.1.0]hexane-1-carboxamide] | 9.6 nM | 3.2 nM | 145 nM
8 | CCOc1cc2ncnc(-c3cn(C)nc3-c3ccccc3F)c2nc1NC(=O)[C@]12C[C@H]1CN(C)C2 (single isomer, unassigned) [Example 401, (1R,5R)—N-(7-ethoxy-4-(3-(2-fluorophenyl)-1-methyl-1H-pyrazol-4-yl)pyrido[3,2-d]pyrimidin-6-yl)-3-methyl-3-azabicyclo[3.1.0]hexane-1-carboxamide or (1S,5S)—N-(7-ethoxy-4-(3-(2-fluorophenyl)-1-methyl-1H-pyrazol-4-yl)pyrido[3,2-d]pyrimidin-6-yl)-3-methyl-3-azabicyclo[3.1.0]hexane-1-carboxamide] | 2.3 nM | 1.2 nM | 53 nM
9 | CCOc1cc2ncnc(-c3cn(C(C)C)nc3-c3ccccc3)c2cc1CO [Example 125, (7-ethoxy-4-(1-isopropyl-3-phenyl-1H-pyrazol-4-yl)quinazolin-6-yl)methanol] | 2.1 nM | 0.9 nM | 1.4 nM
10 | COc1cc2ncnc(-c3cn(C)nc3-c3ccccc3)c2cc1OC1COCCOC1 [Example 21, 6-((1,4-dioxepan-6-yl)oxy)-7-methoxy-4-(1-methyl-3-phenyl-1H-pyrazol-4-yl)quinazoline] | 10.5 nM | 3 nM | 7.4 nM
11 | COc1cc2ncnc(-c3cn(C)nc3-c3ccccc3)c2nc1NC(=O)c1cccc(F)c1 [Example 313, 3-fluoro-N-(7-methoxy-4-(1-methyl-3-phenyl-1H-pyrazol-4-yl)pyrido[3,2-d]pyrimidin-6-yl)benzamide] | 3.8 nM | 0.8 nM | 2.7 nM
12 | COc1cc2ncnc(-c3cn(C)nc3-c3ccccc3)c2cc1NC(=O)c1ccnnc1 [Example 328, N-(7-methoxy-4-(1-methyl-3-phenyl-1H-pyrazol-4-yl)quinazolin-6-yl)pyridazine-4-carboxamide] | 4.5 nM | 1.1 nM | 2.3 nM

The remaining molecules from weak to strong by IC50 [1], led by results:

Row | IC50 [1] | IC50 (EGFR (d746-750)) | IC50 (EGFR L858R) | Compound
13 | 12.1 nM | 9.8 nM | 109 nM | CCOc1cc2ncnc(-c3cn(C)nc3-c3ccccc3)c2cc1N1CCOCC1=O [Example 267, 4-(7-ethoxy-4-(1-methyl-3-phenyl-1H-pyrazol-4-yl)quinazolin-6-yl)morpholin-3-one]
14 | 5.4 nM | 3.3 nM | 6.2 nM | COc1cc2ncnc(-c3cn(C)nc3-c3ccccc3)c2cc1NC(=O)N1C[C@H](C)N(C)C[C@@H]1C [Example 178, (2S,5S)—N-(7-methoxy-4-(1-methyl-3-phenyl-1H-pyrazol-4-yl)quinazolin-6-yl)-2,4,5-trimethylpiperazine-1-carboxamide]
15 | 5 nM | 2 nM | 3.6 nM | COc1cc2ncnc(-c3cn(C)nc3-c3ccccc3)c2cc1OC1CCOCC1 [Example 14, 7-methoxy-4-(1-methyl-3-phenyl-1H-pyrazol-4-yl)-6-((tetrahydro-2H-pyran-4-yl)oxy)quinazoline]
16 | 4.9 nM | 1.9 nM | 4.3 nM | COc1cc2ncnc(-c3cn(C)nc3-c3ccccc3)c2cc1O[C@H]1CCN(C)C[C@@H]1F [Example 2, 6-(((3S,4S)-3-fluoro-1-methylpiperidin-4-yl)oxy)-7-methoxy-4-(1-methyl-3-phenyl-1H-pyrazol-4-yl)quinazoline]
17 | 4.1 nM | 1 nM | 6.7 nM | COc1cc2ncnc(-c3cn(C)nc3-c3cccc(O)c3)c2nc1NC(=O)C1(C(F)(F)F)CC1 [Example 422, N-(4-(3-(3-hydroxyphenyl)-1-methyl-1H-pyrazol-4-yl)-7-methoxypyrido[3,2-d]pyrimidin-6-yl)-1-(trifluoromethyl)cyclopropane-1-carboxamide]
18 | 2.8 nM | 2 nM | 3.5 nM | CCC(=O)Nc1cc2c(-c3cn(C)nc3-c3ccccc3)ncnc2cc1C#CCN1CCOCC1 [Example 451, N-(4-(1-methyl-3-phenyl-1H-pyrazol-4-yl)-7-(3-morpholinoprop-1-yn-1-yl)quinazolin-6-yl)propionamide]
19 | 2.6 nM | 1 nM | 1.9 nM | COc1cc2ncnc(-c3cn(C)nc3-c3ccccc3)c2cc1NC(=O)[C@@H](C)F (single isomer, unassigned) [Example 245, (R)-2-fluoro-N-(7-methoxy-4-(1-methyl-3-phenyl-1H-pyrazol-4-yl)quinazolin-6-yl) propenamide or (S)-2-fluoro-N-(7-methoxy-4-(1-methyl-3-phenyl-1H-pyrazol-4-yl)quinazolin-6-yl) propenamide]
20 | 2.5 nM | 0.8 nM | 1.8 nM | COc1cc2ncnc(-c3cn(C)nc3-c3ccccc3)c2cc1NC(=O)c1ccccc1C [Example 197, N-(7-methoxy-4-(1-methyl-3-phenyl-1H-pyrazol-4-yl)quinazolin-6-yl)-2-methylbenzamide]
21 | 2.5 nM | 1.6 nM | 6.1 nM | COc1cc2ncnc(-c3cn(C)nc3-c3ccccc3)c2nc1OC(C)c1cn(C)nn1 (stereo not drawn) [Example 34, 7-methoxy-6-(1-(1-methyl-1H-1,2,3-triazol-4-yl)ethoxy)-4-(1-methyl-3-phenyl-1H-pyrazol-4-yl)pyrido[3,2-d]pyrimidine]
22 | 2.4 nM | 1.1 nM | 1.8 nM | COc1cc2ncnc(-c3cn(C)nc3-c3ccccc3)c2cc1O[C@H]1CCOC[C@@H]1F [Example 17, 6-(((3S,4S)-3-fluorotetrahydro-2H-pyran-4-yl)oxy)-7-methoxy-4-(1-methyl-3-phenyl-1H-pyrazol-4-yl)quinazoline]
23 | 1.7 nM | 0.8 nM | 1.3 nM | COc1cc2ncnc(-c3cn(CC(F)F)nc3-c3ccccc3)c2cc1NC(=O)c1ccc(C2CC2)nc1 [Example 333, 6-cyclopropyl-N-(4-(1-(2,2-difluoroethyl)-3-phenyl-1H-pyrazol-4-yl)-7-methoxyquinazolin-6-yl) nicotinamide]
24 | 1.5 nM | 0.8 nM | 1.5 nM | COc1cc2ncnc(-c3cn(CC(F)F)nc3-c3ccccc3)c2cc1OC [Example 15, 4-(1-(2,2-difluoroethyl)-3-phenyl-1H-pyrazol-4-yl)-6,7-dimethoxyquinazoline]
25 | 1.1 nM | 0.8 nM | 1 nM | COc1cc2ncnc(-c3cn(C)nc3-c3ccccc3)c2nc1OC(C)c1cscn1 (stereo not drawn) [Example 31, 4-(1-((7-methoxy-4-(1-methyl-3-phenyl-1H-pyrazol-4-yl)pyrido[3,2-d]pyrimidin-6-yl)oxy)ethyl)thiazole]
26 | 0.9 nM | 0.9 nM | 1.3 nM | COc1cc2ncnc(-c3cn(CC(F)F)nc3-c3ccccc3)c2cc1NC(=O)C(F)F [Example 269, N-(4-(1-(2,2-difluoroethyl)-3-phenyl-1H-pyrazol-4-yl)-7-methoxyquinazolin-6-yl)-2,2-difluoroacetamide]
